Assay results published in article PMC7144323, “S-substituted 2-mercaptoquinazolin-4(3H)-one and 4-ethylbenzensulfonamides act as potent and selective human carbonic anhydrase IX and XII inhibitors” (Journal of Enzyme Inhibition and Medicinal Chemistry, 2020).
Where two headings read alike, the source gives them in different places.

Tests used:
Experiment in all cases: stopped-flow CA inhibition assay
Format in all cases: biochemical
[1] = molecular target: T1, hCA IX (Homo sapiens, UniProt Q16790)
T1 construct: gene CA9; recombinant, obtained in-house
Text: stopped-flow CA inhibition assay on hCA IX

[2] = molecular target: T2, hCA I (Homo sapiens, UniProt P00915)
T2 construct: gene CA1; recombinant, obtained in-house
T2 sequence (P00915 2-261): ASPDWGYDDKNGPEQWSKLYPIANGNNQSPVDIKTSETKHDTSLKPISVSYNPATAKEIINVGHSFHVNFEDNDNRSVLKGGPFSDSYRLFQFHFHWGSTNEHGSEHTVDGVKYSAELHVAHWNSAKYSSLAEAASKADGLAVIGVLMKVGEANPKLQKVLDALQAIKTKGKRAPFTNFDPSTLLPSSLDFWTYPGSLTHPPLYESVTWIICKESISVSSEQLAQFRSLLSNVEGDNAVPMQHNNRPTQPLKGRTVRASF
Text: stopped-flow CA inhibition assay on hCA I

[3] = molecular target: T3, hCA XII (Homo sapiens, UniProt O43570)
T3 construct: gene CA12; recombinant, obtained in-house
T3 sequence (O43570 25-354): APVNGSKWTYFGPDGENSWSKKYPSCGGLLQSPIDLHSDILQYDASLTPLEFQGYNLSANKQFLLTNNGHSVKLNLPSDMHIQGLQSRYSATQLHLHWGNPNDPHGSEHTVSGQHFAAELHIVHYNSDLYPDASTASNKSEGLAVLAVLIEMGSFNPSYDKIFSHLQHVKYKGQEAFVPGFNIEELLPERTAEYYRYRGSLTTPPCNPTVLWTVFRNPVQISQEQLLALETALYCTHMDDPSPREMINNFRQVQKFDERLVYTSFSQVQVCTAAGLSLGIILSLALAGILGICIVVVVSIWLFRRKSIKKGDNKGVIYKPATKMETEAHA
Text: stopped-flow CA inhibition assay on hCA XII

[4] = molecular target: T4, hCA II (Homo sapiens, UniProt P00918)
T4 construct: gene CA2; recombinant, obtained in-house
Text: stopped-flow CA inhibition assay on hCA II

Structure (SMILES)	Ki [1] [nM]	Ki [2] [nM]	Ki [3] [nM]	Ki ([1]; mean of […] assays, errors ±[…]) [nM]	Ki ([3]; mean of […] assays, errors ±[…]) [nM]	Ki [4] [nM]
NS(=O)(=O)c1ccc(CCn2c(SCC(=O)c3ccccc3)nc3ccccc3c2=O)cc1 [compound 2, 4-(2-(4-Oxo-2-((2-oxo-2-phenylethyl)thio)quinazolin-3(4H)-yl)ethyl)benzenesulfonamide]	40.7	593	13	–	–	–
NS(=O)(=O)c1ccc(CCn2c(SCC(=O)c3ccc(Br)cc3)nc3ccccc3c2=O)cc1 [compound 3, 4-(2-(2-((2-(4-Bromophenyl)-2-oxoethyl)thio)-4-oxoquinazolin-3(4H)-yl)ethyl)benzenesulfonamide]	75.2	1450	69.6	–	–	–
NS(=O)(=O)c1ccc(CCn2c(SCC(=O)c3ccc(Cl)cc3)nc3ccccc3c2=O)cc1 [compound 4, 4-(2-(2-((2-(4-Chlorophenyl)-2-oxoethyl)thio)-4-oxoquinazolin-3(4H)-yl)ethyl)benzenesulfonamide]	–	–	–	8	10.8	–
NS(=O)(=O)c1ccc(CCn2c(SCC(=O)c3ccc(F)cc3)nc3ccccc3c2=O)cc1 [compound 5, 4-(2-(2-((2-(4-Fluorophenyl)-2-oxoethyl)thio)-4-oxoquinazolin-3(4H)-yl)ethyl)benzenesulfonamide]	–	400	9.1	16.5	–	–
Cc1ccc(C(=O)CSc2nc3ccccc3c(=O)n2CCc2ccc(S(N)(=O)=O)cc2)cc1 [compound 6, 4-(2-(4-Oxo-2-((2-oxo-2-(p-tolyl)ethyl)thio)quinazolin-3(4H)-yl)ethyl)benzenesulfonamide]	25.1	471	85.1	–	–	–
CC(Sc1nc2ccccc2c(=O)n1CCc1ccc(S(N)(=O)=O)cc1)C(=O)c1ccccc1 (stereo not shown) [compound 7, 4-(2-(4-Oxo-2-((1-oxo-1-phenylpropan-2-yl)thio)quinazolin-3(4H)-yl)ethyl)benzenesulfonamide]	63.2	978	76.8	–	–	–
NC(=O)CSc1nc2ccccc2c(=O)n1CCc1ccc(S(N)(=O)=O)cc1 [compound 8, 8]	–	–	–	34.5	2.4	–
NS(=O)(=O)c1ccc(CCn2c(SCC(=O)Nc3ccccc3)nc3ccccc3c2=O)cc1 [compound 9, 9]	27.3	460	38.4	–	–	–
NS(=O)(=O)c1ccc(CCn2c(SCC(=O)Nc3ccc(Br)cc3)nc3ccccc3c2=O)cc1 [compound 10, 10]	64.9	697	61	–	–	–
NS(=O)(=O)c1ccc(CCn2c(SCC(=O)Nc3ccc(Cl)cc3)nc3ccccc3c2=O)cc1 [compound 11, 11]	66.8	726	31.6	–	–	92
NS(=O)(=O)c1ccc(CCn2c(SCC(=O)Nc3ccc(F)cc3)nc3ccccc3c2=O)cc1 [compound 12, N-(4-fluorophenyl)-2-((4-oxo-3-(4-sulfamoylphenethyl)-3,4-dihydroquinazolin-2-yl)thio)acetamide]	–	–	8.7	12.7	–	–
Cc1ccc(NC(=O)CSc2nc3ccccc3c(=O)n2CCc2ccc(S(N)(=O)=O)cc2)cc1 [compound 13, 13]	37.4	878	45.2	–	–	–
COc1ccc(NC(=O)CSc2nc3ccccc3c(=O)n2CCc2ccc(S(N)(=O)=O)cc2)cc1 [compound 14, 14]	84	2570	49.1	–	–	–
CCOc1ccc(NC(=O)CSc2nc3ccccc3c(=O)n2CCc2ccc(S(N)(=O)=O)cc2)cc1 [compound 15, 15]	35.9	3650	59.7	–	–	–
CC(=O)c1ccc(NC(=O)CSc2nc3ccccc3c(=O)n2CCc2ccc(S(N)(=O)=O)cc2)cc1 [compound 16, 16]	24.1	1700	22.5	–	–	–
COc1cc(NC(=O)CSc2nc3ccccc3c(=O)n2CCc2ccc(S(N)(=O)=O)cc2)cc(OC)c1OC [compound 17, 17]	100	2670	16.9	–	–	–
NS(=O)(=O)c1ccc(CCn2c(SCC(=O)NCc3ccc(F)cc3)nc3ccccc3c2=O)cc1 [compound 18, N-(4-fluorobenzyl)-2-((4-oxo-3-(4-sulfamoylphenethyl)-3,4-dihydroquinazolin-2-yl)thio)acetamide]	256	2050	113	–	–	–
COc1ccc(CNC(=O)CSc2nc3ccccc3c(=O)n2CCc2ccc(S(N)(=O)=O)cc2)cc1OC [compound 19, 19]	145	5470	97.3	–	–	–
CC(Sc1nc2ccccc2c(=O)n1CCc1ccc(S(N)(=O)=O)cc1)C(=O)Nc1ccc(Cl)cc1 (stereo not shown) [compound 20, 20]	18.6	3630	66.7	–	–	–
